# Tests used:
# CYP2B6 [1] = target: T1, CYP2B6 (Homo sapiens, UniProt P20813); experiment: biochemical
# T1 sequence (P20813 1-491): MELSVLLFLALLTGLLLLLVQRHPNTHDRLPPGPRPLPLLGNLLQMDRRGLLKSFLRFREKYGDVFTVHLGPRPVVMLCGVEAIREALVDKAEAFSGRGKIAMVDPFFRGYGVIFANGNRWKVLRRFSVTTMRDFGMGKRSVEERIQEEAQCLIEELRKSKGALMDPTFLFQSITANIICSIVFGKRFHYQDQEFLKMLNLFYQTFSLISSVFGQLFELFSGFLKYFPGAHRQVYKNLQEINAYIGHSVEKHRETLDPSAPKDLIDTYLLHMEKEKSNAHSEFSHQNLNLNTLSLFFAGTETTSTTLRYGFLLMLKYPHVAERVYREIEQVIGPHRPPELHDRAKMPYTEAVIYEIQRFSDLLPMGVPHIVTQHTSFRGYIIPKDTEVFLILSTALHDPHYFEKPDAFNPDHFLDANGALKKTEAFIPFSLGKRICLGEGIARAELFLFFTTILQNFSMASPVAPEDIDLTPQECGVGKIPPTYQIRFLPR
# recombinant human MAO-A = target: T2, recombinant human MAO-A (Homo sapiens, UniProt P21397); experiment: MAO inhibition, kynuramine oxidation to 4-hydroxyquinoline; type: biochemical
# T2 sequence (P21397 1-527): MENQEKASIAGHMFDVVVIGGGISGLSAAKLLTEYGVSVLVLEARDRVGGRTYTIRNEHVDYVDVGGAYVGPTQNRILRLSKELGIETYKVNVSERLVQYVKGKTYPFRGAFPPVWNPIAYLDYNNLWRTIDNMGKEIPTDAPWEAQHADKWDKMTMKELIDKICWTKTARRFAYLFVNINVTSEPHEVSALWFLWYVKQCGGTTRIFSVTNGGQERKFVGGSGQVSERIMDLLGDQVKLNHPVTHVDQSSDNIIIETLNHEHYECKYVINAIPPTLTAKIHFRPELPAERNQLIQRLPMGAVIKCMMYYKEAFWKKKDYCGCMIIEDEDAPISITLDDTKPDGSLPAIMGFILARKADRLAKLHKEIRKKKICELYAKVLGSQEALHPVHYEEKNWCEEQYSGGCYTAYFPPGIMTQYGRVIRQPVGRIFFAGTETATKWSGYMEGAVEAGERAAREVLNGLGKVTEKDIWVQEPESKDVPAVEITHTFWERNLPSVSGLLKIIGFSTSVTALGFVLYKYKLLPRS
# Description: (§1) A total of 99 µL of substrate working solution was added into 1.1 mL incubation tubes and then 1 µL of the test compound/control working solution or DMSO (vehicle control) was added, mixed well, and pre-incubated at 37 °C for 5 min. MAO-A (0.005 mg/mL) and MAO-B (0.02 mg/mL) were pre-incubated in the working solution at 37 °C for 5 min. A total of 100 µL of pre-incubated MAO-A or MAO-B working solution was added to incubation tubes to start the reaction, mixed well, and incubated at 37 °C for 15 min. […] All samples were centrifuged at 4000 rpm at 4 °C for 15 min, then 100 µL supernatant with 100 µL of water was transferred for LC-MS/MS analysis.
# (§2) Enzyme activity (%) = PAR with compound/PAR vehicle × 100.
# (§3) The oxidation of kynuramine to 4-hydroxyquinoline generated was the in vitro marker reaction of MAO-A and MAO-B enzymes.
# recombinant human MAO-B = target: T3, recombinant human MAO-B (Homo sapiens, UniProt P27338); experiment: as above; type: biochemical
# T3 construct: purchased Corning
# T3 sequence (P27338 1-520): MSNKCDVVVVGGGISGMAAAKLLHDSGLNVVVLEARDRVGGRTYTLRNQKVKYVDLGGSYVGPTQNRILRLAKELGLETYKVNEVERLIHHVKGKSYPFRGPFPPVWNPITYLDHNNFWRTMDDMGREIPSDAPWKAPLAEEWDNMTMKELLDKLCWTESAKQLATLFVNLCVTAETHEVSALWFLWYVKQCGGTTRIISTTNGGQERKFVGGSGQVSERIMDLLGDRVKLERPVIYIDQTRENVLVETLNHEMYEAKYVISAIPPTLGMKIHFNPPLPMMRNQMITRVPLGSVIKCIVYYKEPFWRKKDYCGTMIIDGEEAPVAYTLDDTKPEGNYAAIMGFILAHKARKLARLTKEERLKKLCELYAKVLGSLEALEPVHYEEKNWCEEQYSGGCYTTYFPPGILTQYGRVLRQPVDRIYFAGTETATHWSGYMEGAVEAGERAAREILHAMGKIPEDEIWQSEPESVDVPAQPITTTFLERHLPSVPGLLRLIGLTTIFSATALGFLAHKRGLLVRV
# Description: as §1, §2, §3
# CYP2B6 [2] = experiment: in vitro; conditions: human; for % of Positive Control / Mean Enzyme Activity: 48 h
# Description: (§4) The sandwich medium was removed, and the hepatocytes were treated with incubation solutions containing salidroside (1, 5, 10, and 30 µM), vehicle (0.1% DMSO), or positive inducers in triplicate for 24 h after the cultures were established. The incubation solution was aspirated and replaced with incubation solution containing the same concentrations of salidroside, vehicle, or positive inducers for an additional 24 h. The total treatment period was 48 h. After the treatment period of 48 h, the incubation solution was aspirated. Hepatocytes were washed twice with pre-warmed HBSS containing 10 mM HEPES (HBSS I) and then the remaining solution was aspirated. Hepatocytes were washed once with pre-warmed HBSS I and incubated with 140 μL of RLT (lysis buffer from RNeasy 96 Kit) supplemented with 1% β-mercaptoethanol. Plates were then stored at −70 °C in a freezer until RNA analysis. Before RNA extraction, the frozen plate was thawed, and cell lysates were transferred to 96-well plates. RNA isolation was performed using a QIAcube RNA extraction system. Reverse transcription was performed to obtain cDNA. Quantification of the selective genes by real-time quantitative polymerase chain reaction (qPCR) was performed with TaqMan universal PCR Master Mix on the Bio-rad CFX384 TouchTM Real-Time PCR System. The relative change in the mRNA level of the selected target genes induced by each test compound was expressed in relation to the vehicle control sample, and fold changes in gene expression were determined by the ΔΔCt method.
# as §2
# CYP1A2 = experiment: in vitro; conditions: human; for % of Positive Control / Mean Enzyme Activity: 48 h
# Description: as §4, §2
compound,measurement,setting,value
OC[C@H]1O[C@@H](OCCc2ccc(O)cc2)[C@H](O)[C@@H](O)[C@@H]1O [Salidroside],IC50,CYP2B6 [1],> 50 µM
same,IC50,recombinant human MAO-A,> 50 µM
same,inhibition at 50 µM,"recombinant human MAO-A; at 50 µM, read-out: maximum % inhibition of MAO-A",13.3%
same,inhibition at 50 µM,"recombinant human MAO-B; at 50 µM, read-out: maximum % inhibition of MAO-B",22.5%
same,IC50,"recombinant human MAO-B; substrate kynuramine (20 µM), mean of N = 2",> 50 µM
same,"fold induction at 48 h, 0.1 µM",CYP2B6 [2],0.87
same,"fold induction at 48 h, 1 µM",CYP2B6 [2],0.58
same,"fold induction at 48 h, 10 µM",CYP2B6 [2],0.87
same,% of Positive Control,CYP2B6 [2]; 0.1 µM,−3%
same,Mean Enzyme Activity,CYP2B6 [2]; 0.1 µM,0.77 pmol/10^6 cells/min
same,% of Positive Control,CYP2B6 [2]; 1 µM,−9%
same,Mean Enzyme Activity,CYP2B6 [2]; 1 µM,0.51 pmol/10^6 cells/min
same,% of Positive Control,CYP2B6 [2]; 10 µM,−3%
same,Mean Enzyme Activity,CYP2B6 [2]; 10 µM,0.76 pmol/10^6 cells/min
same,"fold induction at 48 h, 0.1 µM",CYP1A2,0.8
same,"fold induction at 48 h, 1 µM",CYP1A2,0.66
same,"fold induction at 48 h, 10 µM",CYP1A2,0.76
same,% of Positive Control,CYP1A2; 0.1 µM,−8%
same,Mean Enzyme Activity,CYP1A2; 0.1 µM,2.18 pmol/10^6 cells/min
same,% of Positive Control,CYP1A2; 1 µM,−13%
same,Mean Enzyme Activity,CYP1A2; 1 µM,1.81 pmol/10^6 cells/min
same,% of Positive Control,CYP1A2; 10 µM,−9%
same,Mean Enzyme Activity,CYP1A2; 10 µM,2.08 pmol/10^6 cells/min
